Here are results for eight compounds from patent US20110086759A1, “CHEMICAL COMPOUNDS” (SYNGENTA CROP PROTECTION, INC., priority 2007, published 2011).

Assay type in all cases: in vivo
In assay [1] the test system is Alopecurus myosuroides (ALOMY). Kind of assay: Pre-emergence biological efficacy, glasshouse pot test. The note with it: 312 h, pre-emergence, rate 1,000 g/ha, evaluated after 13 days (100=total damage to plant; 0=no damage), read-out: Percentage damage caused to weed species, ALOMY. Summed up:
(§1)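 One day after sowing in standard soil, pots were sprayed with compound in acetone/water (50:50) with 0.5% Tween 20, at 1000 or 250 g/ha. Plants grew at 24/16° C day/night, 14 h light, 65% humidity. Damage was scored after 13 days (0 = none, 100 = total).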

For assay [2], the system named is Amaranthus retoflexus (AMARE). Described as above. The conditions noted are these: Amaranthus retroflexus, 312 h; pre-emergence, rate 1,000 g/ha, evaluated after 13 days (100=total damage to plant; 0=no damage); read-out: Percentage damage caused to weed species, AMARE. Summed up:
as §1

Assay [3] has as its system Echinochloa crus-galli (ECHCG). The assay is described as above. The conditions noted are these: 312 h, pre-emergence, rate 1,000 g/ha, evaluated after 13 days (100=total damage to plant; 0=no damage), read-out: Percentage damage caused to weed species, ECHCG. Summed up: as §1
Assay [4] deals with Ipomea hederaceae (IPOHE). Described as above. The conditions noted are these: Ipomoea hederacea, 312 h; pre-emergence, rate 1,000 g/ha, evaluated after 13 days (100=total damage to plant; 0=no damage); read-out: Percentage damage caused to weed species, IPOHE. Summed up: as §1
Assay [5] has as its system Setaria faberi (SETFA). The description is as above. The conditions noted are these: 312 h, pre-emergence, rate 1,000 g/ha, evaluated after 13 days (100=total damage to plant; 0=no damage), read-out: Percentage damage caused to weed species, SETFA. Summed up: as §1
Assay [6] relates to Solanum nigrum (SOLNI). The description is as above. The note with it: 312 h, pre-emergence, rate 1,000 g/ha, evaluated after 13 days (100=total damage to plant; 0=no damage), read-out: Percentage damage caused to weed species, SOLNI. Summed up: as §1
Assay [7] has as its system Alopecurus myosuroides (ALOMY). Nature of the assay: Post-emergence biological efficacy, glasshouse pot test. The conditions noted are these: 312 h, Rate 1,000 g/ha, post-emergence spray, evaluated after 13 days (100=total damage to plant; 0=no damage to plant), read-out: Percentage damage caused to weed species, post-emergence, ALOMY. Summed up: (§2)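 Pot-grown weeds were sprayed 8 days after sowing with test compound in acetone/water (50:50) with 0.5% Tween 20 at 1000 or 250 g/ha. Glasshouse at 24/16° C day/night, 14 h light, 65% humidity. Damage scored 0-100 (100 = total damage) after 13 days.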

In assay [8] the test system is Amaranthus retoflexus (AMARE). The assay is described as above. The note with it: Amaranthus retroflexus, 312 h; Rate 1,000 g/ha; post-emergence spray; evaluated after 13 days (100=total damage to plant; 0=no damage to plant); read-out: Percentage damage caused to weed species, post-emergence, AMARE. Summed up:
as §2

Assay [9] concerns Echinochloa crus-galli (ECHCG). The assay is described as above. The note with it: 312 h, Rate 1,000 g/ha, post-emergence spray, evaluated after 13 days (100=total damage to plant; 0=no damage to plant), read-out: Percentage damage caused to weed species, post-emergence, ECHCG. Summed up: as §2
Assay [10] deals with Ipomea hederaceae (IPOHE). Described as above. The note with it: Ipomoea hederacea, 312 h; Rate 1,000 g/ha; post-emergence spray; evaluated after 13 days (100=total damage to plant; 0=no damage to plant); read-out: Percentage damage caused to weed species, post-emergence, IPOHE. Summed up:
as §2

Assay [11] deals with Setaria faberi (SETFA). The assay is described as above. The conditions noted are these: 312 h, Rate 1,000 g/ha, post-emergence spray, evaluated after 13 days (100=total damage to plant; 0=no damage to plant), read-out: Percentage damage caused to weed species, post-emergence, SETFA. Summed up:
as §2

Assay [12] concerns Solanum nigrum (SOLNI). Described as above. The note with it: 312 h, Rate 1,000 g/ha, post-emergence spray, evaluated after 13 days (100=total damage to plant; 0=no damage to plant), read-out: Percentage damage caused to weed species, post-emergence, SOLNI. Summed up: as §2

Regarding `COC(=O)c1nc(C2CC2)nc(N(Cc2ccccc2)Cc2ccccc2)c1Cl` [Compound 155-60, 5-Chloro-2-cyclopropyl-4-dibenzylamino-6-methoxycarbonyl-pyrimidine], the pest or weed control at 1000 g/ha in [1] amounted to 0%; in [2], 30%; in assay [3], 0%; in assay [4] it was 40%; with Setaria faberi (SETFA) [5], 0%; with Solanum nigrum (SOLNI) [6], 0%. Moreover, the pest or weed control at 1000 g/ha in assay [7] amounted to 10%; in [8], 70%; in assay [9] it was 10%; in assay [10], 80%; with Setaria faberi (SETFA) [11], 40%; with Solanum nigrum (SOLNI) [12], 80%.
Regarding `COC(=O)c1nc(C2CC2)nc(N(Cc2ccccc2)CC(O)c2ccccc2)c1Cl` (stereo not drawn) [Compound 155-257, 5-Chloro-2-cyclopropyl-4-[N-(2-hydroxy-2-phenylethyl)-N-phenylmethyl-amino]-6-methoxycarbonyl-pyrimidine], the pest or weed control at 1000 g/ha is 10% in [1]; 30% in [2]; 10% in assay [3]; 30% in assay [4]; 20% in the assay with Setaria faberi (SETFA) [5]; 10% in the assay with Solanum nigrum (SOLNI) [6]. For the same compound, the pest or weed control at 1000 g/ha is 20% in assay [7]; 90% in assay [8]; 0% in assay [9]; 50% in assay [10]; 50% in the assay on Setaria faberi (SETFA) [11]; 80% in the assay on Solanum nigrum (SOLNI) [12].
On to `COC(=O)c1nc(C2CC2)nc(N(CCO)Cc2cccnc2)c1Cl` [Compound 157-156, 5-Chloro-2-cyclopropyl-4-(N-2-hydroxyethyl-N-pyrid-3-ylmethyl--amino)-6-methoxy-carbonylpyrimidine], for which the pest or weed control at 1000 g/ha in [1] amounted to 0%; in [2], 40%; in [3], 0%; in assay [4], 40%; in the assay on Setaria faberi (SETFA) [5], 0%; in the assay with Solanum nigrum (SOLNI) [6] it was 20%. In addition, the pest or weed control at 1000 g/ha in assay [7] was 0%; in assay [8] it was 40%; in assay [9] it was 0%; in assay [10] it was 40%; with Setaria faberi (SETFA) [11], 0%; in the assay with Solanum nigrum (SOLNI) [12] it was 40%.
In the case of `COC(=O)c1nc(C2CC2)nc(N(CCO)Cc2ccc(Cl)nc2)c1Cl` [Compound 157-157, 5-Chloro-4-[N-(6-chloropyrid-3-ylmethyl)-N-2-hydroxyethyl-amino]-2-cyclopropyl-6-methoxycarbonyl-pyrimidine], the pest or weed control at 1000 g/ha was 10% in assay [1]; 100% in [2]; 20% in [3]; 40% in assay [4]; 30% in the assay on Setaria faberi (SETFA) [5]; 100% with Solanum nigrum (SOLNI) [6]. Moreover, the pest or weed control at 1000 g/ha in [7] worked out at 0%; in assay [8], 50%; in assay [9], 0%; in assay [10], 50%; with Setaria faberi (SETFA) [11], 0%; in the assay with Solanum nigrum (SOLNI) [12], 30%.
For `COCCN(C/C=C/c1ccco1)c1nc(C2CC2)nc(C(=O)OC)c1Cl` [Compound 160-256, 5-Chloro-2-cyclopropyl-4-[N-(3-furan-2-yl-prop-2-enyl)-N-2-methoxyethyl-amino]-6-methoxycarbonyl-pyrimidine], the pest or weed control at 1000 g/ha in [1] was found to be 10%; in assay [2] it was 20%; in assay [3] it was 0%; in assay [4], 10%; with Setaria faberi (SETFA) [5], 0%; with Solanum nigrum (SOLNI) [6], 10%. The pest or weed control at 1000 g/ha amounted to 0% in [7]; 90% in [8]; 0% in [9]; 50% in [10]; 40% in the assay with Setaria faberi (SETFA) [11]; 60% in the assay on Solanum nigrum (SOLNI) [12].
Regarding `COC(=O)c1nc(C2CC2)nc(N(CCC#N)Cc2ccccc2)c1Cl` [Compound 161-60, 5-Chloro-4-[N-(2-cyanoethyl)-N-phenylmethyl-amino]-2-cyclopropyl-6-methoxycarbonyl-pyrimidine], the pest or weed control at 1000 g/ha (in assay [1]; in assay [2]; in [3]; in assay [4]; with Setaria faberi (SETFA) [5]; in the assay with Solanum nigrum (SOLNI) [6]) was 0% each time. Also, the pest or weed control at 1000 g/ha in assay [7] stood at 20%; in assay [8], 90%; in [9], 50%; in [10], 70%; in the assay on Setaria faberi (SETFA) [11], 50%; in the assay with Solanum nigrum (SOLNI) [12], 80%.
Consider `COC(=O)c1nc(C2CC2)nc(N(CCC#N)Cc2ccco2)c1Cl` [Compound 161-125, 5-Chloro-4-[N-(2-cyanoethyl)-N-furan-2-ylmethyl-amino]-2-cyclo-propyl-6-methoxy-carbonylpyrimidine], for which the pest or weed control at 1000 g/ha worked out at 20% in assay [1]; 100% in [2]; 20% in [3]; 80% in assay [4]; 0% in the assay on Setaria faberi (SETFA) [5]; 30% in the assay with Solanum nigrum (SOLNI) [6]. Further, the pest or weed control at 1000 g/ha in assay [7] amounted to 0%; in assay [8] it was 80%; in assay [9] it was 10%; in assay [10] it was 40%; in the assay with Setaria faberi (SETFA) [11], 40%; with Solanum nigrum (SOLNI) [12], 50%.
Consider `CCOC(=O)CCN(Cc1ccccc1)c1nc(C2CC2)nc(C(=O)OC)c1Cl` [Compound 162-60, 5-Chloro-2-cyclopropyl-4-[N-(2-ethoxycarbonyl-ethyl)-N-phenylmethyl-amino]-6-methoxycarbonyl-pyrimidine], for which the pest or weed control at 1000 g/ha in assay [1] amounted to 10%; in assay [2], 40%; in assay [3], 20%; in [4] it was 70%; in the assay with Setaria faberi (SETFA) [5], 0%; in the assay on Solanum nigrum (SOLNI) [6] it was 20%. Also, the pest or weed control at 1000 g/ha in assay [7] came to 10%; in assay [8], 80%; in assay [9] it was 0%; in [10], 70%; with Setaria faberi (SETFA) [11] it was 0%; in the assay with Solanum nigrum (SOLNI) [12] it was 60%.
